Source: patent publication US20260256925A1, “INDAZOLE DERIVATIVES AS ESTROGEN RECEPTOR DEGRADERS” (REGENTS OF THE UNIVERSITY OF MICHIGAN, priority 2022, published 2026)

Experiments:
ER = target: T1, ER (Homo sapiens, UniProt P03372); assay: In-cell western blot analysis, relative ER percentage (compounds B1-B126); format: cell-based; conditions: ER degradation, 16 hours, read-out: ICW DC50
T1 construct: endogenous in cells; probably T47D or MCF-7
T1 sequence (P03372 1-595): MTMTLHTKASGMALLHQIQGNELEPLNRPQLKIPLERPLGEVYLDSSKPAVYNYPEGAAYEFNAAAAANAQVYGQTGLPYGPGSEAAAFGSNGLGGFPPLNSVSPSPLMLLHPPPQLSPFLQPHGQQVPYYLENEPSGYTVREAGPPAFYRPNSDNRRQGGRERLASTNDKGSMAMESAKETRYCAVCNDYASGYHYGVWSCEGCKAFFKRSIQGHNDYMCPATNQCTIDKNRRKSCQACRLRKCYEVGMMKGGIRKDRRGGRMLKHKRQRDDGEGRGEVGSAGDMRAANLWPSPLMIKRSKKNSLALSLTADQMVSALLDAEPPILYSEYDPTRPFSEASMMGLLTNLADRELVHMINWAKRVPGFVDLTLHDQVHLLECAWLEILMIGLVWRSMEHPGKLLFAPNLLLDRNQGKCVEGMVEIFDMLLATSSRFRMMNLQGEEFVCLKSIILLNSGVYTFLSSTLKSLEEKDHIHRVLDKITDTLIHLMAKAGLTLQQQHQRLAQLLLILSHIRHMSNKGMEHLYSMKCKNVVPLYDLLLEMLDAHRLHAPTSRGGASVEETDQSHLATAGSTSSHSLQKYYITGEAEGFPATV
In short: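 Readout was a two-colour infrared in-cell western of formaldehyde-fixed cells after 16 h compound exposure at 0.5% DMSO, with 40,000 or 10,000 cells/well plated the previous night. Relative ER percentage compares treated wells against untreated/DMSO-treated wells taken as 100%.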

[1] = Cell growth assay, WST-8 (compounds B1-B126); format: cell-based; conditions: 96 h; T47D cell line, WST-8, 4 days; read-out: Cell growth inhibition in T47D cell line IC50
In short: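 Read-out is WST-8 absorbance at 450 nm (2.5 h, 37° C) as a fraction of vehicle control, from three separate repeats. Compound exposure lasted 4 days, starting one day after plating 1500 cells/well.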

| DC50 (ER) | Structure (SMILES) | IC50 [1] |
| --- | --- | --- |
| < 10 nM | C[C@@H]1Cc2c(ccc3[nH]ncc23)[C@@H](c2ccc(N3CCC4(CC3)CC(CN3CCN5c6ccc7c(c6OC[C@H]5C3)CN(C3CCC(=O)NC3=O)C7=O)C4)cn2)N1CC(F)(F)F (stereo partly drawn) [Compound B106, 3-((R)-7-((7-(6-((6S,8R)-8-methyl-7-(2,2,2-trifluoroethyl)-6,7,8,9-tetrahydro-3H-pyrazolo[4,3-f]isoquinolin-6-yl)pyridin-3-yl)-7-azaspiro[3.5]nonan-2-yl)mcthyl)-1-oxo-1,3,5,5a,6,7,8,9-octahydro-2H-pyrazino[1′,2′:4,5][1,4]oxazino[2,3-e]isoindol-2-yl)piperidine-2,6-dione] | < 1 nM |
| 10 to 100 nM | COc1cc(N2CC3(CCC(CN4CCN5c6ccc7c(c6OC[C@@H]5C4)CN(C4CCC(=O)NC4=O)C7=O)CC3)C2)ccc1[C@@H]1c2ccc3[nH]ncc3c2C[C@@H](C)N1CC(F)F (stereo partly drawn) [Compound B85, 3-((S)-7-((2-(4-((6S,8R)-7-(2,2-difluoroethyl)-8-methyl-6,7,8,9-tetrahydro-3H-pyrazolo[4,3-f]isoquinolin-6-yl)-3-methoxyphenyl)-2-azaspiro[3.5]nonan-7-yl)methyl)-1-oxo-1,3,5,5a,6,7,8,9-octahydro-2H-pyrazino[1′,2′:4,5][1,4]oxazino[2,3-e]isoindol-2-yl)piperidine-2,6-dione] | > 10 nM |
| > 100 nM | COc1cc(N2CC3(CCC(CN4CCN5c6ccc7c(c6OC[C@H]5C4)CN(C4CCC(=O)NC4=O)C7=O)CC3)C2)ccc1[C@@H]1c2ccc3[nH]ncc3c2C[C@@H](C)N1CC(F)F (stereo partly drawn) [Compound B84, 3-((R)-7-((2-(4-((6S,8R)-7-(2,2-difluoroethyl)-8-methyl-6,7,8,9-tetrahydro-3H-pyrazolo[4,3-f]isoquinolin-6-yl)-3-methoxyphenyl)-2-azaspiro[3.5]nonan-7-yl)methyl)-1-oxo-1,3,5,5a,6,7,8,9-octahydro-2H-pyrazino[1′,2′:4,5][1,4]oxazino[2,3-e]isoindol-2-yl)piperidine-2,6-dione] | > 10 nM |

Second part, the molecule before the results:

| Structure (SMILES) | DC50 (ER) | IC50 [1] |
| --- | --- | --- |
| C[C@@H]1Cc2c(ccc3[nH]ncc23)[C@@H](c2c(F)cc(NC3CC4(C3)CN(CC(=O)N3CCN5c6cc7c(cc6OC[C@@H]5C3)C(=O)N(C3CCC(=O)NC3=O)C7)C4)cc2F)N1CC(F)F (stereo partly drawn) [Compound B42, 3-((S)-3-(2-(6-((4-((6S,8R)-7-(2,2-difluoroethyl)-8-methyl-6,7,8,9-tetrahydro-3H-pyrazolo[4,3-f]isoquinolin-6-yl)-3,5-difluorophenyl)amino)-2-azaspiro[3.3]heptan-2-yl)acetyl)-8-oxo-1,2,3,4,4a,5,8,10-octahydro-9H-pyrazino[1′,2′:4,5][1,4]oxazino[2,3-f]isoindol-9-yl)piperidine-2,6-dione] | < 10 nM | < 1 nM |
| COc1cc(N2CCC3(CCN(C(=O)CN4Cc5cc6c(cc5C4)C(=O)N(C4CCC(=O)NC4=O)C6=O)CC3)CC2)ccc1[C@@H]1c2ccc3[nH]ncc3c2C[C@@H](C)N1CC(F)F (stereo partly drawn) [Compound B68, 6-(2-(9-(4-((6S,8R)-7-(2,2-difluoroethyl)-8-methyl-6,7,8,9-tetrahydro-3H-pyrazolo[4,3-f]isoquinolin-6-yl)-3-methoxyphenyl)-3,9-diazaspiro[5.5]undecan-3-yl)-2-oxoethyl)-2-(2,6-dioxopiperidin-3-yl)-6,7-dihydropyrrolo[3,4-f]isoindole-1,3(2H,5H)-dione] | < 10 nM | 1 to 10 nM |
| COc1c2c(cc3c1CN(C1CCC(=O)NC1=O)C3=O)CN(CC(=O)N1CCC3(CC1)CCN(c1cc(F)c([C@@H]4c5ccc6[nH]ncc6c5C[C@@H](C)N4CC(F)F)c(F)c1)CC3)C2 (stereo partly drawn) [Compound B72, 3-(6-(2-(9-(4-((6S,8R)-7-(2,2-difluoroethyl)-8-methyl-6,7,8,9-tetrahydro-3H-pyrazolo[4,3-f]isoquinolin-6-yl)-3,5-difluorophenyl)-3,9-diazaspiro[5.5]undecan-3-yl)-2-oxoethyl)-4-methoxy-1-oxo-3,5,6,7-tetrahydropyrrolo[3,4-f]isoindol-2(1H)-yl)piperidine-2,6-dione] | < 10 nM | 1 to 10 nM |
| C[C@@H]1Cc2c(ccc3[nH]ncc23)[C@@H](c2c(F)cc(N3CC4(CN(CC(=O)N5CCN6c7ccc8c(c7OC[C@H]6C5)CN(C5CCC(=O)NC5=O)C8=O)C4)C3)cc2F)N1CC(F)F (stereo partly drawn) [Compound B98, 3-((R)-7-(2-(6-(4-((6S,8R)-7-(2,2-difluoroethyl)-8-methyl-6,7,8,9-tetrahydro-3H-pyrazolo[4,3-f]isoquinolin-6-yl)-3,5-difluorophenyl)-2,6-diazaspiro[3.3]heptan-2-yl)acetyl)-1-oxo-1,3,5,5a,6,7,8,9-octahydro-2H-pyrazino[1′,2′:4,5][1,4]oxazino[2,3-e]isoindol-2-yl)piperidine-2,6-dione] | < 10 nM | < 1 nM |
| C[C@@H]1Cc2c(ccc3[nH]ncc23)[C@@H](c2ccc(N3CCC(CN4CCC5(CC4)COc4c(ccc6c4CN([C@H]4CCC(=O)NC4=O)C6=O)O5)CC3)cn2)N1CC(F)(F)F [Compound B119, (S)-3-(1-((1-(6-((6S,8R)-8-methyl-7-(2,2,2-trifluoroethyl)-6,7,8,9-tetrahydro-3H-pyrazolo[4,3-f]isoquinolin-6-yl)pyridin-3-yl)piperidin-4-yl)mcthyl)-7′-oxo-7′,9′-dihydro-2′H,8′H-spiro[piperidine-4,3′-[1,4]dioxino[2,3-e]isoindol]-8′-yl)piperidine-2,6-dione] | 10 to 100 nM | < 1 nM |
| C[C@@H]1Cc2c(ccc3[nH]ncc23)[C@@H](c2ccc(N3CC4(CC(CN5CCN6c7cc8c(cc7OC[C@@H]6C5)C(=O)N(C5CCC(=O)NC5=O)C8)CO4)C3)cn2)N1CC(F)(F)F (stereo partly drawn) [Compound B97, 3-((4aS)-3-((2-(6-((6S,8R)-8-methyl-7-(2,2,2-trifluoroethyl)-6,7,8,9-tetrahydro-3H-pyrazolo[4,3-f]isoquinolin-6-yl)pyridin-3-yl)-5-oxa-2-azaspiro[3.4]octan-7-yl)methyl)-8-oxo-1,2,3,4,4a,5,8,10-octahydro-9H-pyrazino[1′,2′:4,5][1,4]oxazino[2,3-f]isoindol-9-yl)piperidine-2,6-dione] | < 10 nM | < 1 nM |
| C[C@@H]1Cc2c(ccc3[nH]ncc23)[C@@H](c2ccc(N3CCC4(CCC(CN5CCC6(CC5)COc5c6ccc6c5CN([C@H]5CCC(=O)NC5=O)C6=O)CO4)CC3)nn2)N1CC(F)(F)F (stereo partly drawn) [Compound B128, (3S)-3-(1′-((9-(6-((6S,8R)-8-methyl-7-(2,2,2-trifluoroethyl)-6,7,8,9-tetrahydro-3H-pyrazolo[4,3-f]isoquinolin-6-yl)pyridazin-3-yl)-1-oxa-9-azaspiro[5.5]undecan-3-yl)methyl)-6-oxo-6,8-dihydro-2H,7H-spiro[furo[2,3-e]isoindole-3,4′-piperidin]-7-yl)piperidine-2,6-dione] | < 10 nM | < 1 nM |
| C[C@@H]1Cc2c(ccc3[nH]ncc23)[C@@H](c2ccc(N3CCC4(CC3)CC(CN3CCN5c6ccc(C(=O)N[C@H]7CCC(=O)NC7=O)nc6OC[C@H]5C3)CO4)cn2)N1CC(F)(F)F (stereo partly drawn) [Compound B93, (4aR)-N-((S)-2,6-dioxopiperidin-3-yl)-3-((8-(6-((6S,8R)-8-methyl-7-(2,2,2-trifluoroethyl)-6,7,8,9-tetrahydro-3H-pyrazolo[4,3-f]isoquinolin-6-yl)pyridin-3-yl)-1-oxa-8-azaspiro[4.5]decan-3-yl)methyl)-1,2,3,4,4a,5-hexahydropyrazino[1,2-d]pyrido[2,3-b][1,4]oxazine-8-carboxamide] | 10 to 100 nM | 1 to 10 nM |
